Assays:
[1] = system: follicle dermal papilla cells; assay: Reactive oxygen species (ROS) activity in follicle dermal papilla cells; assay type: cell-based; details: 5 μg/mL, 24 hr, relative to vehicle control (0.1% v/v DMSO)
Experimental: Normalized reactive oxygen species (ROS) activity in follicle dermal papilla cells were analyzed after treatment with 5 μg/mL example compounds relative to vehicle control (0.1% v/v DMSO) after 24 hr. The increase in ROS levels is harmful to cell homeostasis, structures, and functions and results in oxidative stress.

[2] = system: human hair follicle dermal papilla cells (hFDPC); assay: Human follicle dermal papilla cells (hFDPC) proliferation assay; assay type: cell-based; details: hFDPCs supplemented with BIO, BMP-2 and FGFβ
From the text: In Table 8, A represents less than 20% of increased proliferation of hFDPCs, B represents 20-40%, and C represents larger than 40% of increased proliferation of hFDPCs.

HepG2 cells = assay: Caspase 3/7 activity in HepG2 cells; assay type: cell-based; details: HepG2, >2-log concentration range, versus % v/v-matched DMSO
Experimental: (§1) Cells were treated with either the example compounds or vehicle control containing correspondingly % v/v-matched amounts of DMSO spanning a >2-log concentration range. Data represents mean±s.d. and representative of at least 2 experimental replicates.
as §1, with “HepG2 cells are an immortalized liver cell line commonly used to study apoptosis induced by small molecules. Cells” for “Cells”

TK.6 lymphoblasts = assay: TK.6 micronucleus assay; assay type: cell-based
Experimental: (§2) The safety/toxicology profiles of a compound or salt of the present disclosure was evaluated via a series of in vitro genotoxicity assays, including the SOS-chromotest to determine bacterial genotoxicity, and the TK.6 micronucleus assay to determine chromosomal damage and forward mutations. Standard reactive oxygen species (ROS) and caspase 3/7 assay were conducted to determine general cellular toxicity. Moreover, a series of sensitization tests were conducted to predict any potential skin sensitivity. These include the direct peptide reactivity assay to evaluate haptenization, the KeratinoSens reporter assay to determine potential sensitivity via the activation of a cytoprotective pathway, and an immunological assay using human immature monocyte-derived dendritic cells to evaluate any potential immunogenicity.
TK.6 lymphoblasts are a well-studied cell line commonly used for gene mutation analyses. They are heterozygous for the thymidine kinase gene (TK) and enable the detection of forward mutations and chromosomal damage, which manifests as micronuclei and are detectable via flow cytometry.
TK.6 cells were dosed with the example compounds or a vehicle control (0.1% v/v DMSO) and cultured with or without S9 metabolic activation for 24 hr. […] Methyl methanesulfonate, a known genotoxic, alkylating agent was used as a positive control for micronuclei detection.
The micronucleus assay was also performed to determine if the compounds are genotoxic by evaluating the presence of micronuclei. […] In combination. […] I-17 elicited genotoxicity at >3.125 μg/mL.

bacteria = assay: SOS chromotest (bacteria-based genotoxicity test, β-galactosidase activity); assay type: cell-based; details: varying concentrations; 4-NQ as known genotoxin
Experimental: The SOS chromotest is a well-established bacteria-based test for genotoxicity.
as §2

Nrf2-ARE pathway = assay: KeratinoSens Nrf2-ARE reporter assay (ARE-luciferase); assay type: cell-based; details: cinnamic aldehyde as known sensitizing compound
Experimental: as §2
The Nrf2-ARE pathway is a master regulator of cytoprotective responses to oxidative stress, and is an early indicator of skin sensitization. Nrf2 (nuclear factor erythroid 2-related factor) is a transcription factor that binds to antioxidant responsive elements (ARE). By fusing ARE to the light-producing luciferase gene, a KeratinoSens Nrf2-ARE reporter assay was performed whereby luciferase signal is directly correlated to Nrf2-ARE pathway activation. Normalized ARE-luciferase activity was measured using a known sensitizing compound (cinnamic aldehyde) and example compounds.

[3] = Clinical consumer perception study; assay type: in vivo, human
Experimental: The clinical test was performed by Eurofins|CRL, Inc. The test followed established, standardized procedures for clinical testing designed to ensure the well-being of clinical study subjects and the generation of reliable study data. Subjects were female and ranged in age from 27-65 years. Subjects used a simple, water-based formula containing an example compound, VII-3 (at 0.02% v/v) every 2 days in the morning or night on dry or towel-dried hair. Approximately 2 mL was applied directly to the hairline. No randomization was required for the study and subjects were blinded to the name of the test material.
Photographs of subjects' hair were taken 6 weeks after the treatment with the representative compounds (FIG. 6). Subjects were female and ranged in age from 27-65 years. Subjects used a simple, water-based formula containing an example compound VII-3 (at 0.02% v/v) every 2 days in the morning or night on dry or towel-dried hair. Approximately 2 mL was applied directly to the hairline. No randomization was required for the study and subjects were blinded to the name of the test material. FIG. 6. highlights specific regions of the included participants' scalps, juxtaposing pictures taken before and after the study. Based on clinical surveys, 97% of women reported an improvement in their hair's appearance while 82% reported increased hair growth and thickness.
After the conclusion of the study, subjects completed a Consumer perception questionnaire. Table 24 includes percentages of each response for the corresponding prompt in the questionnaire. The specific response choice is specified within the parentheses below the percentage.

[4] = system: Human follicle papilla cells; assay: Functional stability: follicle papilla cell proliferation after pH and temperature pre-treatment of the compound; assay type: cell-based; details: prepared in DMSO, DMI or 1:1 DMI/ethanol, diluted in pH-adjusted water, varying temperatures, 7 days; cells dosed 5 μg/mL, 48 hr
Experimental: Compound VII-3 was prepared in various solvents (DMSO; dimethyl sulfoxide, DMI; dimethyl isosorbide, or a 1:1 mixture of dimethyl isosorbide and ethanol), the diluted in pH-adjusted water and left at varying temperatures for 7 days. Human follicle papilla cells were dosed at 5 μg/mL with the example compound and further supplemented with 6-bromoindirubin-39-Oxime (BIO), recombinant bone morphogenetic protein-2 (BMP-2), and basic fibroblast growth factor (FGFβ), whose combination was previously found to preserve in vivo dermal papilla gene signatures. Normalized proliferation follicle papilla cell proliferation was analyzed after 48 hr following the treatment with the example compound pre-treated across a range of pH conditions (FIG. 7A) and temperature conditions (FIG. 7B). Data represents mean±s.d. and representative of n=2 donors.

[5] = response: I haven't noticed a change

SMILES: C=CCc1cc(/C=C2\C(=O)NC(=S)N(c3ccccc3OC)C2=O)cc(OCC)c1O [I-18]
- Normalized reactive oxygen species (ROS) activity [1]: higher than other compounds
- Percent Increase Proliferation of hFDPCs (%) [2]: B (B represents 20-40%)

SMILES: CCC(=O)N1CCN(c2nnc(-c3ccc(C)cc3)c3ccccc23)CC1 [II-4, 1-Propanone, 1-[4-[4-(4-methylphenyl)-1-phthalazinyl]-1-piperazinyl]-]
- Normalized caspase 3/7 activity (HepG2 cells): did not exhibit any caspase activation
- micronuclei formation / genotoxic effect in TK.6 cells (TK.6 lymphoblasts): do not promote any micronuclei formation
- Percent Increase Proliferation of hFDPCs (%) [2]: B (B represents 20-40%)
- genotoxic effects in SOS chromotest (normalized β-galactosidase activity) (bacteria): did not exhibit any genotoxic effects

SMILES: COC(=O)c1c(S(C)(=O)=O)[nH]c(-c2ccccc2)nc1=O [VII-1, 5- Pyrimidinecarboxylic acid, 1,4-dihydro-6-(methylsulfonyl)-4-oxo-2-phenyl-, methyl ester]
- Normalized caspase 3/7 activity (HepG2 cells): did not exhibit any caspase activation
- micronuclei formation / genotoxic effect in TK.6 cells (TK.6 lymphoblasts): do not promote any micronuclei formation
- sensitizing potential (normalized ARE-luciferase activity) (Nrf2-ARE pathway): exhibited sensitizing potential
- Percent Increase Proliferation of hFDPCs (%) [2]: C (C represents larger than 40% of increased proliferation of hFDPCs)
- genotoxic effects in SOS chromotest (normalized β-galactosidase activity) (bacteria): did not exhibit any genotoxic effects

SMILES: CSc1nc(-c2ccco2)nn1S(C)(=O)=O [VII-3, 1H-1,2,4-Triazole, 3-(2-furanyl)-1-(methylsulfonyl)-5-(methylthio)-]
- Normalized caspase 3/7 activity (HepG2 cells): did not exhibit any caspase activation
- Since the beginning of the study, I have noticed a decrease of the number of hairs lost in the shower. ([3]; response: Agree): 53.1%
- Since the start of the study, I can see more hair in the areas where the serum was applied. ([3]; response: Agree): 53.1%
- Since the beginning of the study, I have noticed a decrease of the number of hairs lost in the shower. ([3]; response: Disagree): 6.3%
- Since the start of the study, I can see more hair in the areas where the serum was applied. ([3]; response: Disagree): 3.1%
- Because of the treatment I have received since the start of the study, the appearance of my hair is: ([3]; response: Fuller): 56.3%
- Since the beginning of the study, I have noticed a decrease of the number of hairs lost in the shower. [3, 5]: 21.9%
- Since the start of the study, I can see more hair in the areas where the serum was applied. [3, 5]: 31.3%
- Since the start of the study, how effective do you think the treatment has been in increasing your hair growth/thickness? ([3]; response: Not effective at all): 0%
- Since the start of the study, how effective do you think the treatment has been in slowing down your hair loss? ([3]; response: Not effective at all): 3.1%
- Since the start of the study, how effective do you think the treatment has been in increasing your hair growth/thickness? ([3]; response: Not very effective): 18.8%
- Since the start of the study, how effective do you think the treatment has been in slowing down your hair loss? ([3]; response: Not very effective): 15.6%
- Since the start of the study, how effective do you think the treatment has been in increasing your hair growth/thickness? ([3]; response: Somewhat effective): 71.9%
- Since the start of the study, how effective do you think the treatment has been in slowing down your hair loss? ([3]; response: Somewhat effective): 53.1%
- Because of the treatment I have received since the start of the study, the appearance of my hair is: ([3]; response: Stronger): 21.9%
- Since the beginning of the study, I have noticed a decrease of the number of hairs lost in the shower. ([3]; response: Strongly Agree): 18.8%
- Since the start of the study, I can see more hair in the areas where the serum was applied. ([3]; response: Strongly Agree): 12.5%
- Since the beginning of the study, I have noticed a decrease of the number of hairs lost in the shower. ([3]; response: Strongly Disagree): 0%
- Since the start of the study, I can see more hair in the areas where the serum was applied. ([3]; response: Strongly Disagree): 0%
- Because of the treatment I have received since the start of the study, the appearance of my hair is: ([3]; response: Thicker): 18.8%
- Because of the treatment I have received since the start of the study, the appearance of my hair is: ([3]; response: Thinner): 3.1%
- Since the start of the study, how effective do you think the treatment has been in increasing your hair growth/thickness? ([3]; response: Very effective): 9.4%
- Since the start of the study, how effective do you think the treatment has been in slowing down your hair loss? ([3]; response: Very effective): 28.1%
- Because of the treatment I have received since the start of the study, the appearance of my hair is: ([3]; response: Weaker): 0%
- Subjects with tight hairstyles who noticed less shedding ([3]; water-based formula 0.02% v/v every 2 days, 6 weeks, 32 female subjects): 28/32 (87%)
- Adverse effects ([3]; water-based formula 0.02% v/v every 2 days, 6 weeks, 32 subjects completed): 0/32 (0%)
- functional stability (normalized follicle papilla cell proliferation after pre-treatment of the compound) [4]: functionally stable across physiologically-relevant pH and temperature ranges
- Percent Increase Proliferation of hFDPCs (%) [2]: B (B represents 20-40%)
- genotoxic effects in SOS chromotest (normalized β-galactosidase activity) (bacteria): did not exhibit any genotoxic effects

SMILES: COc1ccc(CCCc2nc3ccccc3[nH]2)cc1 [VII-14, 1H-Benzimidazole, 2-[3-(4-methoxyphenyl)propyl]-]
- Normalized caspase 3/7 activity (HepG2 cells): did not exhibit any caspase activation
- micronuclei formation / genotoxic effect in TK.6 cells (TK.6 lymphoblasts): do not promote any micronuclei formation
- Percent Increase Proliferation of hFDPCs (%) [2]: A (A represents less than 20% of increased proliferation of hFDPCs)
